# Experimental data reported in patent US20240180881A1, “METHODS FOR DECREASING RESISTANCE TO CHEMOTHERAPY” (National Institute of Immunology, priority 2022, published 2024).
# Assays:
# CT26 cells = experiment: Syngeneic or allogenic model, CT26; assay type: in vivo, BALB/c mice; details: for tumour volume, chemoresistance: CPT + compound
# Description: Xenografts assays were carried out in BALB/c mice using CT26 cells.
# RNA (FIG. 17D) or protein (FIG. 17E) levels of the indicated MDR genes were determined by RT-qPCR or immunoblotting with the indicated antibodies.
# RAD54 = target: T1, RAD54 (Homo sapiens, UniProt Q92698); experiment: ATP binding assay; assay type: biochemical; details: 10 μM compound
# T1 construct: GST RAD54 (1-747) (WT); made in house; host or cells: E. coli BL-21 DE3
# T1 sequence (Q92698 1-747): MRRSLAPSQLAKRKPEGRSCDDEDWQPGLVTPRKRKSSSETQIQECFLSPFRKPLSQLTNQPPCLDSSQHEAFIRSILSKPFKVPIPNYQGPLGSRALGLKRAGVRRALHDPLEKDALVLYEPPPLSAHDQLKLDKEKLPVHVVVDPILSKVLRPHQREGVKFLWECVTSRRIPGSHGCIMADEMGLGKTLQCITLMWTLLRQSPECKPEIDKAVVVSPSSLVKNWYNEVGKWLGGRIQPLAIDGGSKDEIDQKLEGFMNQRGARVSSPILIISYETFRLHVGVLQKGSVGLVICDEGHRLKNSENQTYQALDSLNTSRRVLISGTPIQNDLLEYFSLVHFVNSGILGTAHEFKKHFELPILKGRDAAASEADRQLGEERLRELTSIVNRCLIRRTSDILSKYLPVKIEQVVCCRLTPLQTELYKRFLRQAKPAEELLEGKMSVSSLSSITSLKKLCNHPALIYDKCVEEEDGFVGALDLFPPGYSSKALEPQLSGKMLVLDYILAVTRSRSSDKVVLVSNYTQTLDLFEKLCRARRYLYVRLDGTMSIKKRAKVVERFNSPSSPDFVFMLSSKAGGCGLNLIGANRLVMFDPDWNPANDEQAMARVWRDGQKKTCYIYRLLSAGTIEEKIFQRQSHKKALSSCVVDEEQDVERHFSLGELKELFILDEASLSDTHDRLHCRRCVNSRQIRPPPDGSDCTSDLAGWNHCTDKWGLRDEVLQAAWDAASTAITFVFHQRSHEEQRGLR
# Description: The quantitation of the ATP binding assay was carried out using RAD54 WT, RAD54 WT+BLM_peptide, and RAD54 WT+SCM_peptide. The data is from three independent experiments. Mean±S.D.
# The presence of the disruptors also led to a decrease in the ATP binding to RAD54.
# A 20 μl reaction was set up with 120 nM of GST-RAD54 and 180 nM of either BLM_peptide or SCM_peptide or BLM (1-212) using 4 μl of 5×ATP binding assay buffer (100 mM Tris-Cl pH 7.5, 50 mM MgCl2, 10 mM MnCl2, 5 mM DTT) and 5 μCi of [γ^32P]dATP. […] Reactions were incubated at 30° C. for 20 minutes and were stopped with 10% TCA and samples were spotted on P81 phosphocellulose paper followed by washing of paper strips with 75 mM orthophosphoric acid. A minimum of 8 washes were given in 20 hrs of 1 hr each including a 12 hr wash. Following this, strips were dehydrated in ethanol for 10 min followed by liquid scintillation counting. Reactions without the substrate were spotted as control and the same process repeated.
# His-RAD54 WT = target: T2, His-RAD54 WT (Homo sapiens, UniProt Q92698); experiment: Octet Bio-Layer Interferometry (BLI) binding; details: His-RAD54 WT immobilized onto Ni-NTA-sensor, 25° C.; read-out: affinity constant (KD)
# T2 construct: made in house; host or cells: E. coli BL-21 DE3
# T2 sequence (Q92698 1-747): T1 sequence (Q92698 1-747)
# Description: The interactions between RAD54 and biotinylated BLM_peptide (181-212) as well as the various compounds were studied using Bio-layer interferometry (BLI) using the Octet K2 system (ForteBio Systems). Approximately, 250 μg of His-tagged RAD54 was immobilized onto a Ni-NTA chip for 600 s and the unbound protein was washed using 10 mM HEPES pH 7.5 buffer. […] Each of the reaction set was then used to check for their association with RAD54 captured on the sensor. The kinetics of the RAD54-BLM interaction was monitored for 180 s each for the association and the dissociation curves by dipping the sensors in a series of increasing concentrations of the BLM_peptide. 500 mM NaCl was used as the dissociation buffer. A control sensor with the immobilized RAD54 was used in parallel and was used to normalize the data. Washing in 350 mM EDTA regenerated the sensors for the next cycle of binding kinetics. The experiments were performed at 25° C. All the real-time data was analysed and KD values were determined using the Octet® Evaluation software using 1:1 fitting curves.
# [1] = target: T3, RAD54 chromatin remodeling activity (Homo sapiens, UniProt Q92698); experiment: Restriction enzyme accessibility (REA) assay on chromatinized G5E4 array; assay type: biochemical; details: 10 μM compound, +ATP
# T3 construct: GST RAD54 (1-747) (WT), GST BLM (1-1417) (WT), His RAD54 (1-747) (WT); made in house; host or cells: E. coli BL-21 DE3
# T3 sequence (Q92698 1-747): T1 sequence (Q92698 1-747)
# Description: (§1) The data is from three independent experiments.
# as §1
# HT-29 OHP(R) cells = experiment: Xenograft, HT-29 OHP(R); assay type: in vivo, NSG mice; details: for tumour volume, chemoresistance: CPT + compound
# Description: Xenografts assays were carried out in NSG mice using HT-29 OHP(R) cells.
# RNA (FIG. 16D) or protein (FIG. 16E) levels of the indicated MDR genes were determined by RT-qPCR or immunoblotting with the indicated antibodies.
# [2] = without or with compound treatment
Compound,"tumour volume, chemoresistance (CT26 cells)",RNA and protein levels of the MDR genes in tumours (CT26 cells; [2]),BLM dependent enhancement of ATP binding by RAD54 (RAD54),Kd (His-RAD54 WT),"BLM (1-212) dependent enhancement of RAD54 chromatin remodeling, fraction uncut [1]","tumour volume, chemoresistance (HT-29 OHP(R) cells)",RNA and protein levels of the MDR genes in tumours (HT-29 OHP(R) cells; [2])
"CN1CCN(C2=Nc3ccccc3Oc3ccc(Cl)cc32)CC1.O=C(O)CCC(=O)O [C17, Loxapine succinate]",reverses chemoresistance,decreased,decreased BLM dependent enhancement of the binding of ATP by RAD54,0.0803 µM,decrease the efficiency of BLM dependent enhancement of RAD54 chromatin remodeling activity,reverses chemoresistance,decreased
"CC(=O)Nc1nnc(S(N)(=O)=O)s1 [C3, Acetazolamide]",reverses chemoresistance,–,decreased BLM dependent enhancement of the binding of ATP by RAD54,55.8 µM,decrease the efficiency of BLM dependent enhancement of RAD54 chromatin remodeling activity,reverses chemoresistance,–
"OCCN(CCO)c1nc(N2CCCCC2)c2nc(N(CCO)CCO)nc(N3CCCCC3)c2n1 [C7, Dipyridamole]",reverses chemoresistance,–,decreased BLM dependent enhancement of the binding of ATP by RAD54,5.04 µM,decrease the efficiency of BLM dependent enhancement of RAD54 chromatin remodeling activity,reverses chemoresistance,–
